The target of assay [1] is Macrophage colony-stimulating factor 1 receptor (Homo sapiens) (UniProt P07333). The assay can be described thus: Binding affinity to wild-type human partial length CSF1R (I564 to S939 residues) expressed in bacterial expression system assessed as residual binding level at 1 uM by Kinomescan method relative to control.
In assay [2] the test system is Epidermal growth factor receptor (Homo sapiens), P00533 [T790M]. As to the kind of experiment: Binding affinity to human partial length EGFR T790M mutant (R669 to G1022 residues) expressed in mammalian expression system assessed as residual binding level at 1 uM by Kinomescan method relative to control.
The target of assay [3] is Serine/threonine-protein kinase 17A (Homo sapiens) (UniProt Q9UEE5). The assay can be described thus: Binding affinity to wild-type human partial length DRAK1 (R32 to E363 residues) expressed in bacterial expression system assessed as residual binding level at 1 uM by Kinomescan method relative to control.
Chain of Serine/threonine-protein kinase 17A (Homo sapiens) (Q9UEE5 whole entry, the tested form may be a part): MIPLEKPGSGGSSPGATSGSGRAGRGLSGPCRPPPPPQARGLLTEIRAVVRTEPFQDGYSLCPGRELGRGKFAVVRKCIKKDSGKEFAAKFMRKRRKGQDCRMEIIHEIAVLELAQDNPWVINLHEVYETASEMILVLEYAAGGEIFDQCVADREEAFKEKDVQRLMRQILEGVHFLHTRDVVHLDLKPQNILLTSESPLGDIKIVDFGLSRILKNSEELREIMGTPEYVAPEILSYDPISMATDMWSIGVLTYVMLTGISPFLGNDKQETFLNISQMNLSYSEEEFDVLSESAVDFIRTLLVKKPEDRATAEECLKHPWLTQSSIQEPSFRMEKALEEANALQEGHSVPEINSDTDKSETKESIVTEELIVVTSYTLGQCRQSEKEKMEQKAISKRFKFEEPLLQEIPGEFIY
Assay [4] deals with Serine/threonine-protein kinase PLK3 (Homo sapiens) (UniProt Q9H4B4). As to the kind of experiment: Binding affinity to wild-type human partial length PLK3 (A42 to L334 residues) expressed in mammalian expression system assessed as residual binding level at 1 uM by Kinomescan method relative to control.
Chain of Serine/threonine-protein kinase PLK3 (Homo sapiens) (Q9H4B4 whole entry, looked up, the tested form may be a part): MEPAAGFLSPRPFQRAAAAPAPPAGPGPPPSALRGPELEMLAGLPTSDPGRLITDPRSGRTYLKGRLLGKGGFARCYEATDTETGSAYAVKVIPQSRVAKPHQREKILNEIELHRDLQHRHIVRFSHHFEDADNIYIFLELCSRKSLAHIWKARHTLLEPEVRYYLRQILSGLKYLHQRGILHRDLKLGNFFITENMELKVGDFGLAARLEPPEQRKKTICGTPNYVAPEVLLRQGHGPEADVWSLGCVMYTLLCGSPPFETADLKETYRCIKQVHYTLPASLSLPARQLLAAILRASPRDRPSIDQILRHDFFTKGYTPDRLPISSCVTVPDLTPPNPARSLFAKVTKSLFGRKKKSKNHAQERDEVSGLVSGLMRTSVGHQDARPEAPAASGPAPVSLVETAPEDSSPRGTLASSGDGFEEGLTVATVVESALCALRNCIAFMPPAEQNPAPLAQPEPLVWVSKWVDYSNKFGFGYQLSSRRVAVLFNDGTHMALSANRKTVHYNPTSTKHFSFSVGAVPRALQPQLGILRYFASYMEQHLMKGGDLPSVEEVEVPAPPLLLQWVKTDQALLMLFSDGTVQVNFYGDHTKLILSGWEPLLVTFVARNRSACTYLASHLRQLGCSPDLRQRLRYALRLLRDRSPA
Assay [5] concerns the target Cyclin-dependent kinase 2 homolog (Plasmodium falciparum (isolate 3D7)) (UniProt P61075). The assay can be described thus: Binding affinity to wild-type Plasmodium falciparum full length PK5 (M1 to N288 residues) expressed in mammalian expression system assessed as residual binding level at 1 uM by Kinomescan method relative to control.

Chain of Macrophage colony-stimulating factor 1 receptor (Homo sapiens) (P07333 whole entry, the tested form may be a part): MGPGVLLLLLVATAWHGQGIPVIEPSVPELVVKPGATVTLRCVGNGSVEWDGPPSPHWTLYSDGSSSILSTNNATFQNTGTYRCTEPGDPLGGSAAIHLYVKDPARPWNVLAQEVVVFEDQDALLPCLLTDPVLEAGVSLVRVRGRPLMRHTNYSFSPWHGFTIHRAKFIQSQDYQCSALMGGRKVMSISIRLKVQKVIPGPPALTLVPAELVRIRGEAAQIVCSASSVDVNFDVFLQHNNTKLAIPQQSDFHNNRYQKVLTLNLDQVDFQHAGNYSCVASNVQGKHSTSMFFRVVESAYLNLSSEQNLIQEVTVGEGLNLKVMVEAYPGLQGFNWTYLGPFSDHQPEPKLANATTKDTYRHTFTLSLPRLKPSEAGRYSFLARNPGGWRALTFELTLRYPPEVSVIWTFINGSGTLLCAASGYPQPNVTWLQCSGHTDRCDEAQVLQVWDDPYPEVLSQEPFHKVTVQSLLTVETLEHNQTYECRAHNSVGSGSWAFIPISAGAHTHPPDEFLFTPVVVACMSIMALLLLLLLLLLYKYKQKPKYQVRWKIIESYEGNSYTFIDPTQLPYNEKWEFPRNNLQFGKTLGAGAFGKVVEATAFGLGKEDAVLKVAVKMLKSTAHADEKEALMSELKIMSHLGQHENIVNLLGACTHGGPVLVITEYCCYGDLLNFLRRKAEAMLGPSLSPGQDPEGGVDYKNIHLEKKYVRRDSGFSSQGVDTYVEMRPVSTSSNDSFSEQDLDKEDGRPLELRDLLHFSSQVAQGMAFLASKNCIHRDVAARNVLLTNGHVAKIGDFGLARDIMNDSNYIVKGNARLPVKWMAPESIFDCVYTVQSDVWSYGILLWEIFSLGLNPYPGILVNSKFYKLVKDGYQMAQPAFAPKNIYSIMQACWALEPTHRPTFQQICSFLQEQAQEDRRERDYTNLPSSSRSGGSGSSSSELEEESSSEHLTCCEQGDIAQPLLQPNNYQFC
Chain of Cyclin-dependent kinase 2 homolog (Plasmodium falciparum (isolate 3D7)) (P61075 whole entry, the tested form may be a part): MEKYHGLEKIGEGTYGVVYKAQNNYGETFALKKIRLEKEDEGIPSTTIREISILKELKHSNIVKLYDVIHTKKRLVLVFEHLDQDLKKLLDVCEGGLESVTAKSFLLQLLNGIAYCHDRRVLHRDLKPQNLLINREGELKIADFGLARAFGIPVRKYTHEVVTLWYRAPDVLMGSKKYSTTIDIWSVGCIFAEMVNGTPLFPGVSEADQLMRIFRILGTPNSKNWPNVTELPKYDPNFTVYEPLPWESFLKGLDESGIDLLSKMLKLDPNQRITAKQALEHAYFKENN

Regarding `CC(C)Nc1sc(C(=O)c2ccc(Cl)s2)c(N)c1C#N`, the Activity is 97% in assay [1]; 66% in assay [2]; 61% in assay [3]; 85% in assay [4]; 94% in assay [5].

The values above are taken from ChEMBL document CHEMBL4330132, “5-Keto-3-cyano-2,4-diaminothiophenes as selective maternal embryonic leucine zipper kinase inhibitors” (Bioorg Med Chem Lett, 2019).
